Laboratory results reported in patent US7294625B2, “Pyrazole compounds” (Ube Industries, Ltd., priority 2002, dated 2007).

target: T1, p38MAP kinase (Homo sapiens, UniProt Q16539); test: Enzyme inhibitory test against p38MAP kinase; type: biochemical; conditions: active type p38MAP kinase, EGFR peptide substrate, [γ-32P]ATP, 30° C. 30 minutes; read-out: p38MAP kinase inhibition IC50 value
T1 construct: purchased Stratagene (p38MAP kinase); Upstate (SKK/MKK6) #206145 (p38MAP kinase); #14-225 or #14-303 (SKK/MKK6)
T1 sequence (Q16539 whole entry): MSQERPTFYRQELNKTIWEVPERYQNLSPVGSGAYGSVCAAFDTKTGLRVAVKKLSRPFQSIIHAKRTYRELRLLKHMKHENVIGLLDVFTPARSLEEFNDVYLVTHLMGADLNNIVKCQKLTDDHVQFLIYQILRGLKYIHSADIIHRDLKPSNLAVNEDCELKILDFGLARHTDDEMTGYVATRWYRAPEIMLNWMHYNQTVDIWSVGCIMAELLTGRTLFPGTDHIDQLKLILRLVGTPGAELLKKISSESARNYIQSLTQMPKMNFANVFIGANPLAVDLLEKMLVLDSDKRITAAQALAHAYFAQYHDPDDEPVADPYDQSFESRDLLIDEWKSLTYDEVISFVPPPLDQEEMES
Protocol: Test Example 1 Enzyme Inhibitory Test Against p38MAP Kinase
(1) Preparatoin of Active Type p38MAP Kinase
An active type p38MAP kinase was prepared by incubation in a reaction solution (25 mM Tris-HCl pH 7.5, 5 mM β-glycerolphosphate, 2 mM DTT, 0.1 mM […], 10 mM MgCl2, 1 mM ATP) containing p38MAP kinase (Stratagene, #206145) and SKK/MKK6 (Upstate, #14-225 or #14-303) at 30° C. for 1 to 3 hours. This enzyme solution was diluted 5 to 10-fold with Stock Buffer (50 mM Tris-HCl pH 7.5, 0.1 mM EGTA, 0.2 mM Orthovanadate, 0.1% 2-ME, 10% glycerol, 0.03% Brij-35, 0.5 μM Microcystin), and preserved under freezing (−80° C.).
(2) Measurement of Inhibitory Activity of p38MAP Kinase
To 34 μL of a reaction solution (25 mM HEPES, pH 7.5, 10 mM Magnesium acetate) containing the active type p38MAP kinase prepared as mentioned above and a substrate (final concentration: […] EGFR; […]) was added 1 μL of DMSO, or a compound to be tested and dissolved in DMSO, then, the mixture was subjected to preincubation at 4° C. for 30 minutes. A reaction was started by adding 5 μL of an ATP solution (400 μM ATP, 1 μCi/μL [γ-^32P]ATP), and reacted at 30° C. for 30 minutes, and then, the reaction was stopped by adding 5 μL of 250 mM H3PO4. 25 μL of the reaction solution was placed on chromatography paper (Whatman, #P81), dried for about 2 minutes, and washed with 75 mM H3PO4. Water was removed by using 95% ethanol, it was transferred to a bial containing liquid scintillation cocktail (available from Nacalai Tesque), and radioactivity was measured. A concentration (IC50 value) of a compound to be tested necessary for inhibiting 50% of phosphrylation (^32P) of the substrate by the enzyme was calculated as compared to that non-treated by the compound to be tested by XL-fit (available from IDBS).

SMILES | IC50
O=c1ccc(-n2cc(-c3ccncc3)c(-c3ccc(F)cc3)n2)n[nH]1 [Example 1, 3-(4-Fluorophenyl)-1-(1,6-dihydro-6-oxopyridazin-3-yl)-4-(pyridin-4-yl)-1H-pyrazole] | 8.9 nM
CC(=O)Nc1cc(-c2cn(-c3ccc4nncn4n3)nc2-c2ccc(F)cc2)ccn1 [Example 9, 4-(2-Acetylaminopyridin-4-yl)-3-(4-fluorophenyl)-1-([1,2,4]triazolo[4,3-b]pyridazin-6-yl)-1H-pyrazole] | 5.4 nM
Nc1cc(-c2cn(-c3cc(N)c(=O)[nH]n3)nc2-c2ccc(F)cc2)ccn1 [Example 4, 1-(5-Amino-1,6-dihydro-6-oxopyridazin-3-yl)-4-(2-aminopyridin-4-yl)-3-(4-fluorophenyl)-1H-pyrazole] | 2.5 nM
COC(=O)Nc1cc(-c2cn(-c3ccc4nncn4n3)nc2-c2ccc(F)cc2)ccn1 [Example 11, 3-(4-Fluorophenyl)-4-(2-methoxycarbonylaminopyridin-4-yl)-1-([1,2,4]triazolo[4,3-b]pyridazin-6-yl)-1H-pyrazole] | 6.1 nM

Continued, values first:

IC50 | SMILES
6.6 nM | Nc1cc(-c2cn(-c3ccc(=O)[nH]n3)nc2-c2cccc(F)c2)ccn1 [Example 22, 4-(2-Aminopyridin-4-yl)-3-(3-fluorophenyl)-1-(1,6-dihydro-6-oxopyridazin-3-yl)-1H-pyrazole]
1.3 nM | CC(=O)Nc1cc(-c2cn(C3=NNC(=O)CC3)nc2-c2ccccc2F)ccn1 [Example 62, 4-(2-Acetylaminopyridin-4-yl)-3-(2-fluorophenyl)-1-(1,4,5,6-tetrahydro-6-oxopyridazin-3-yl)-1H-pyrazole]
8.7 nM | Nc1cc(-c2cn(-c3ccc4nncn4n3)nc2-c2ccc(F)c(F)c2)ccn1 [Example 40, 4-(2-Aminopyridin-4-yl)-3-(3,4-difluorophenyl)-1-([1,2,4]triazolo[4,3-b]pyridazin-6-yl)-1H-pyrazole]
3.7 nM | CC(Nc1cc(-c2cn(-c3ccc4nncn4n3)nc2-c2ccc(F)cc2)ccn1)c1ccccc1 (centres unmarked) [Example 18, 3-(4-Fluorophenyl)-4-[2-(1-phenethylamino)pyridin-4-yl]-1-([1,2,4]triazolo[4,3-b]pyridazin-6-yl)-1H-pyrazole]
4.9 nM | O=C(Nc1cc(-c2cn(-c3ccc4nncn4n3)nc2-c2ccc(F)cc2)ccn1)C1CCCC1 [Example 45, 4-(2-Cyclopentylcarbonylaminopyridin-4-yl)-3-(4-fluorophenyl)-1-([1,2,4]triazolo[4,3-b]pyridazin-6-yl)-1H-pyrazole]
1.3 nM | CCNc1cc(-c2cn(-c3ccc(=O)[nH]n3)nc2-c2ccc(F)cc2)ccn1 [Example 27, 4-(2-Ethylaminopyridin-4-yl)-3-(4-fluorophenyl)-1-(1,6-dihydro-6-oxopyridazin-3-yl)-1H-pyrazole]
5.9 nM | Nc1cc(-c2cn(-c3ccc(=O)[nH]n3)nc2-c2cccc(C(F)(F)F)c2)ccn1 [Example 25, 4-(2-Aminopyridin-4-yl)-1-(1,6-dihydro-6-oxopyridazin-3-yl)-3-(3-trifluoromethylphenyl)-1H-pyrazole]
0.2 nM | O=c1ccc(-n2cc(-c3ccnc(NCC(F)(F)F)c3)c(-c3ccccc3F)n2)n[nH]1 [Example 34, 3-(2-Fluorophenyl)-1-(1,6-dihydro-6-oxopyridazin-3-yl)-4-[2-(2,2,2-trifluoroethyl)aminopyridin-4-yl]-1H-pyrazole]
2.1 nM | CC(=O)Nc1cc(-c2cn(C3=NNC(=O)CC3)nc2-c2ccc(F)cc2)ccn1 [Example 57, 4-(2-Acetylaminopyridin-4-yl)-3-(4-fluorophenyl)-1-(1,4,5,6-tetrahydro-6-oxopyridazin-3-yl)-1H-pyrazole]
3.4 nM | Cc1cc(-n2cc(-c3ccnc(N)c3)c(-c3ccc(F)cc3)n2)n[nH]c1=O [Example 32, 4-(2-Aminopyridin-4-yl)-3-(4-fluorophenyl)-1-(1,6-dihydro-5-methyl-6-oxopyridazin-3-yl)-1H-pyrazole]

system: LPS-induced TNF-α production in human PBMC; test: Inhibition of TNF-α production in human PBMC (in vitro); type: cell-based; conditions: LPS 10 μg/ml, 18 hours, TNF-α ELISA, read-out: Inhibitory effect on LPS-induced TNF-α production in human PBMC IC50 value
Protocol: Test Example 2 Inhibition of TNF-α Production in Human PBMC (In Vitro)
Test was carried out according to the method of Welker et al. (Int. Arch. Allergy Immunol., 109, 110-115 (1996).
Heparin-added blood collected from healthy volunteer with consent was underlayed with a specific gravity-separating solution (Lymphoprep; available from Daiichi Pure Chemicals Co., Ltd.), subjected to centrifugation (800×g, 25 minutes), and a mononuclear cell layer was recovered. The obtained mononuclear cells (human PBMC) were washed twice with PBS (available from SIGMA), and resuspended in 1% FCS-containing RPMI aqueous solution (available from GIBCO) so that the cells became 5×10^6 cells/mL. The thus obtained cell suspension was diluted 10-fold with 1% FCS-containing RPMI medium, DMSO (or the compound to be tested) with a final concentration of 0.5% was added thereto, and cultured at 37° C. in 5% CO2 for 1 hour. After that, LPS (derived from E. Coli 055:5B, available from SIGMA) solution prepared by PBS was added so that the final concentration thereof being 10 μg/ml, and cultivation was carried out for further 18 hours. After the cultivation, culture medium was subjected to centrifugation (800×g, 10 minutes), and a concentration of TNF-α produced in the supernatant was measured by an enzyme-linked immunosorbent assay (ELISA) kit (TNF-α ELISA Kit, available from R&D). The concentration (IC50 value) of the test compound for inhibiting 50% of TNF-α production was calcualted by using XL-fit (available from IDBS).

SMILES | IC50
O=C1CCC(n2cc(-c3ccnc(NC(=O)C4CC4)c3)c(-c3ccccc3F)n2)=NN1 [Example 65, 4-(2-Cyclopropylcarbonylaminopyridin-4-yl)-3-(2-fluorophenyl)-1-(1,4,5,6-tetrahydro-6-oxopyridazin-3-yl)-1H-pyrazole] | 15 nM
O=C(Nc1cc(-c2cn(-c3ccc4nncn4n3)nc2-c2ccc(F)cc2)ccn1)C1CC1 [Example 43, 4-(2-Cyclopropylcarbonylaminopyridin-4-yl)-3-(4-fluorophenyl)-1-([1,2,4]triazolo[4,3-b]pyridazin-6-yl)-1H-pyrazole] | 14 nM
CC(=O)Nc1cc(-c2cn(-c3ccc(=O)[nH]n3)nc2-c2ccccc2F)ccn1 [Example 35, 4-(2-Acetylaminopyridin-4-yl)-3-(2-fluorophenyl)-1-(1,6-dihydro-6-oxopyridazin-3-yl)-1H-pyrazole] | 6 nM
O=c1ccc(-n2cc(-c3ccnc(NCC(F)(F)F)c3)c(-c3ccc(F)cc3)n2)n[nH]1 [Example 28, 3-(4-fluorophenyl)-1-(1,6-dihydro-6-oxopyridazin-3-yl)-4-[2-(2,2,2-trifluoroethyl)aminopyridin-4-yl]-1H-pyrazole] | 7 nM
Nc1cc(-c2cn(-c3cc(N)c(=O)[nH]n3)nc2-c2ccc(F)cc2)ccn1 [Example 4, 1-(5-Amino-1,6-dihydro-6-oxopyridazin-3-yl)-4-(2-aminopyridin-4-yl)-3-(4-fluorophenyl)-1H-pyrazole] | 28 nM
O=C1CCC(n2cc(-c3ccnc(NCC(F)(F)F)c3)c(-c3ccccc3F)n2)=NN1 [Example 61, 3-(2-Fluorophenyl)-1-(1,4,5,6-tetrahydro-6-oxopyridazin-3-yl)-4-[2-(2,2,2-trifluoroethyl)aminopyridin-4-yl]-1H-pyrazole] | 4 nM
Nc1cc(-c2cn(C3=NNC(=O)CC3)nc2-c2ccccc2F)ccn1 [Example 55, 4-(2-Aminopyridin-4-yl)-3-(2-fluorophenyl)-1-(1,4,5,6-tetrahydro-6-oxopyridazin-3-yl)-1H-pyrazole] | 36 nM

system: cytokine (IL-1β and TNF-α) induced IL-6 production; test: Inhibition of IL-6 production in rat (in vivo); conditions: LEW rats, 3 mg/Kg oral, 1 hour before IL-1β/TNF-α i.v., serum IL-6 two hours later
Protocol: Test Example 3 Inhibition of IL-6 Production in Rat (In Vivo)
A cytokine mixed solution of IL-1β and TNF-α was intravenously injected to rats to induce production of IL-6. A mixed solution of IL-1β (available from R&D) (4 μg/ml) and TNF-α (available from R&D) (2 μg/ml) dissolved in PBS was administered to tail vein of LEW series rats (female, body weight: about 140 to 170 g, available from Charles River Japan, Inc.) fasted overnight with a ratio of 1 ml/kg of the body weight. Two hours later, blood was collected from the neck vein under ether anesthesia. The collected blood was centrifuged under the conditions of 20° C. and 10,000×g to separate serum. IL-6 concentration in the serum was measured by using an enzyme-linked immunosorbent assay (ELISA) kit (IL-6 ELISA KIT, available from R&D).
The test compound or the vehicle was orally administered with a dose of 10 ml/kg of the body weight before 1 hour of the injection of the cytokine mixed solution. The control group to which the vehicle was administered and the group of the compound to be tested were each 5 rats per group. An inhibitory ratio of the group of the compound to be tested based on control group was calculated.

SMILES | Rat cytokine induced IL-6 production inhibiting ratio (%) @3 mg/Kg
O=C1CCC(n2cc(-c3ccnc(NCC(F)(F)F)c3)c(-c3ccc(F)cc3)n2)=NN1 [Example 56, 3-(4-Fluorophenyl)-1(1,4,5,6-tetrahydro-6-oxopyridazin-3-yl)-4-[2-(2,2,2-trifluoroethyl)aminopyridin-4-yl]-1H-pyrazole] | 85%
Nc1cc(-c2cn(-c3ccc(=O)[nH]n3)nc2-c2ccccc2F)ccn1 [Example 26, 4-(2-Aminopyridin-4-yl)-3-(2-fluorophenyl)l-1(1,6-dihydro-6-oxopyridazin-3-yl)-1H-pyrazole] | 77%
